In patent US20070134319A1, “Pharmaceutical formulations of bisphosphonates” (priority 2003, published 2007):

Text: The solubility of zoledronic acid in [sequence] 44/14 and [sequence]

With `O=P(O)(O)C(O)(Cn1ccnc1)P(=O)(O)O` [zoledronic acid, 1-hydroxy-2-(imidazol-1-yl)ethane-1,1-diphosphonic acid] the “Zoledronic acid solubility in all the excipients (liquid lipidic media)” value (assessed visually) was < 0.2 mg/g of excipient, the “Solubility of zoledronic acid in VITAMIN E-TPGS” value (at 40° C.) was “less than 0.22 mg/g” and the “Solubility of zoledronic acid in GELUCIRE 50/13” value (at 60° C.) was “less than 1 mg/g”. For the same compound, the “Solubility in pH 4.5 acetate buffer” value (pH 4.5) was “readily soluble” and the “Precipitation upon addition of flush” value (pH 4.5 acetate buffer solution, tap water (final pH 3.8) or citric acid (final pH~2.2) flush) was “does not precipitate out”.
